Assays:
3T3-L1 cells = test: Lipogenesis inhibition in 3T3-L1 cells (Sudan III dyeing); format: cell-based, mouse; details: 50 µM
Description: The mouse fibroblast cell line, 3T3-L1 cells are immobilized in a 6-well culture plate filled with Dulbecco's modified eagle's medium (DMEM) (GIBCO BRL, Life Technologies, Inc.) containing 10% fetal bovine serum (FBS) at an amount of 1×10^5 cells/well. After 2 days, the used medium is replaced with a new DMEM (containing 10% FBS) medium to culture the cells for 2 days. […] After 5 days, the used DMEM medium is replaced with a normal medium (DMEM containing 10% FBS). The cells are cultured and observed until they are morphologically changed into fat cells. In order to evaluate the ginsenoside F2 in regards to the inhibitory effect on the fat accumulation in the fat cells, the completely differentiated 3T3-L1 fat cells are dyed with Sudan III ([…], Sigma-Aldrich). The fat cells are immobilized with 4% para-formaldehyde (pH 7.2) at the room temperature in a phosphate buffer solution. The fat cells are washed with phosphate-buffered saline (PBS) and then dyed with Sudan III. The picture of the fat cells is taken for visual evaluation. The control uses a medium using neither a test substance nor a comparative substance. The comparative control group is treated with 50 μM caffeine. The fat accumulation inhibitory ability is evaluated based on the degree of dying. The degree of dying is graded +++, ++, +, and - in the decreasing order.

[1] = system: prostaglandin generation in macrophagocytes collected from the abdominal cavity of a mouse; test: Prostaglandin generation inhibition in LPS-treated macrophagocytes (ELISA); format: cell-based; details: 100 μl of ginsenoside F2
Description: The inflammatory effect is evaluated in terms of the inhibitory effect on prostaglandin generation. Ginsenoside F2 is used to measure the effect on macrophagocytes. Firstly, macrophagocytes collected from the abdominal cavity of a mouse are treated with aspirin to have the final concentration of 500 µM, causing irreversible inhibition on the activity of cyclooxygenase (COX) remaining in the macrophagocytes. Then, 100 μl of the suspension is put in each well of a 96-well culture plate and cultured in an incubator under the conditions of 5% CO2 and 37° C. for 2 hours to immobilize the macrophagocytes on the surface of the container. Subsequently, the immobilized macrophagocytes are washed with PBS three times and used in the inflammatory improvement test. […] Then, the macrophagocytes are treated with 100 μl of ginsenoside F2, and the isolated prostaglandin is quantitatively analyzed by way of ELISA (Enzyme-Linked ImmunoSorbent Assey).
In this regard, the prostaglandin generation inhibitory activity of the ginsenoside F2 is determined by the reduced amount of prostaglandin generated in the LPS-treated group in comparison with the case of the control in terms of the percentage amount of the prostaglandin decreased by treatment with LPS and the sample, while the difference in the amount of the generated prostaglandin between the LPS-treated group and the control group is set to 100%.

Cn1c(=O)c2c(ncn2C)n(C)c1=O [Comparative group, caffeine, reference compound]
Inhibition rate (%) (degree of dying with Sudan III) (3T3-L1 cells): +

CC(=O)Oc1ccccc1C(=O)O [Control (aspirin-treated group), aspirin, reference compound]
prostaglandin generation (Blank = 100%) [1]: 25.0%
